These results are taken from patent publication US12673063B2, “Methods and materials for treatment of fibrosis” (Massachusetts Eye and Ear Infirmary, priority 2020, dated 2026).

The structures appear in SMILES notation.

In data set [1] the test system is ACE2 protein in HPAEpi cells. The experiment in a line: TGF-β1 and TNF-α induced ACE2 protein, Western blot, HPAEpi cells. It counts as cell-based, human. The following applies: pretreatment. Here is the method:
(§1) Human Pulmonary Alveolar Epithelial cells (HPAEpiCs) were purchased from ScienCell (Carlsbad, CA, USA) and cultured in alveolar epithelial cell medium (ScienCell) supplemented with 2% fetal bovine serum (FBS), epithelial cell growth supplement, 100 U/mL penicillin G, and 100 µg/mL streptomycin. The cells were cultured and maintained in 6-well plates for experimental purposes.
(§2) Protein concentration was determined by Pierce Bicinchonic acid (BCA) protein assay kit (ThermoFisher; 23227) according to the manufacturer's instructions. 20 μg of total cell lysates were prepared in 4 μL 1M 1,4-dithiothreitol (DTT; Sigma Aldrich) and 10 μL Laemmli buffer (Boston Bioproducts) to a final volume of 40 μL and denatured 5 min at 90° C. Samples were separated electrophoretically for 1 h at 70 V using 4-20% pre-cast gradient gels (Mini-PROTEAN TGX, Bio-Rad) and SDS-Tris-Glycine buffer (Bio-rad). Proteins were transferred to 0.45 μm nitrocellulose membranes for 1 h at 70 V in ice cold […] Tris-Glycine buffer (Bio-rad). Membranes were blocked for 1 h with Odyssey Blocking Buffer (LI-COR Biosciences). […]
Additionally, we studied the effect of RUNX1 inhibition on the expression of ACE2 expression in TGF-β1 and TNF-α stimulated HPAEpi cells. […] FURIN protein levels were also observed to go down by 70% in the Ro24-7429 treated mice as evaluated by Western blot (FIGS. 4E-F).
For orientation: In western blotting, separated proteins are transferred to a membrane and probed.

The test system of a further data set is RUNX1 mRNA in HMEC-Ls. The experiment in a line: TNF-α-induced RUNX1 mRNA, qRT-PCR, HMEC-Ls. It counts as cell-based, human. As to conditions: 75 μM, TNF-α 5 ng/ml, 48 hours.
For data set [2], the system named is human lung fibroblasts (HLF). The experiment in a line: Lactate dehydrogenase (LDH) cell death assay, HLF. It counts as cell-based. As to conditions: Ro24-7429 50-200 μM, Ro5-3335 150 μM. From the text:
We conducted mechanistic studies in cell culture to examine the cellular and molecular mechanisms underlying the robust effects of RUNX1 inhibition in the protection against bleomycin-induced lung injury. We tested the effect of RUNX1 inhibition on the proliferation of a human alveolar basal epithelial cell line (A549), primary human-derived pulmonary alveolar epithelial cells (HPAEpi), and in human-derived primary culture lung fibroblasts (HLF). For specific analyses we used escalating doses of Ro24-7429 (50-200 μM), Ro5-3335 (150 μM), pirfenidone (500 μg/ml) and nintedanib (5 μM), the latter two are currently approved drugs for IPF.

For data set [3], the system named is N-Cadherin in HPAEpi cells. The experiment in a line: TGF-β1-induced N-Cadherin upregulation, Western blot, HPAEpi. As to conditions: 150 μM and 200 μM, 24 hours prior to TGF-β1 exposure. Type of data set: cell-based, human. The protocol:
as §1, §2
We evaluated the effect of RUNX1 inhibition on the expression of fibrosis markers induced by TGF-β1, a critical mediator of PF (30), in A549 cells at 24, 48 and 72 hours. […]

Data set [4] relates to human immunodeficiency virus (HIV). The following applies: patients infected with HIV; cited from earlier work.

With `CNC1=Nc2ccc(Cl)cc2C(c2ccc[nH]2)=NC1` [Ro24-7429, 3H-1,4-Benzodiazepin-2-amine, 7-chloro-N-methyl-5-(1H-pyrrol-2-yl)-], in data set [1], the “TGF-β1 and TNFα induced ACE2 protein levels” value is on record as “significantly reduced”. Further, in the data set with RUNX1 mRNA in HMEC-Ls, the “reduction of TNF-α-induced upregulation of RUNX1 mRNA” value was 50%. Besides, the “cell death by LDH analysis” value in data set [2] was “Very low levels of cell death”. Also, in data set [3], the “TGF-β1-induced N-Cadherin upregulation” value is “effectively prevented”. For the same compound, in data set [4], the “antiviral activity in clinical trials” value was “no detectable antiviral activity” and the “safety profile in clinical trials” value is reported as “acceptable safety profile”.
